Columns and labels:
[1] = test system: streptozotocin diabetic rats; experiment: Treatment of streptozotocin diabetic rats for 4 weeks; assay type: in vivo, Sprague-Dawley rats
Experimental: FIG. 45. […] Prior to treatment the blood glucose levels taken every 2 days for 6 days prior to treatment are between 300-600 mg/dl. After randomization the average blood sugar level of each group are between 421 and 433 mg/dl. Rats were treated every 2 days subcutaneously. […] Non-fasting sugar levels taken every 2 days were added together to obtain area under the curve (AUC) for each animal to average out cyclical variability in each animal.
FIG. 46. This is a graph showing the average body weight of streptozotocin diabetic rats at the end of the 4 week treatment period (+/−standard deviation; n=4) that started at 13th day after diabetes induction with 60 mg/kg streptozotocin. The starting weights of all animals prior to streptozotocin treatment are within 240 to 260 grams.
FIG. 47. […] The islets were located and the number of BrDU positive nuclei in each islet was counted.
Briefly for this in vivo protocol, 12-week old male Sprague-Dawley (HSD) rats (Harlan, Indianapolis, Ind.) were housed at 23±1° C. in a 12:12-h light:dark cycle, and were given access to food and water ad libitium (diet LM-485, Teklad, Madison, Wis.). […] Non-fasting blood sugar levels were monitored daily from day 2 by tail-tip snip blood collection (5 ul) and blood sugar levels were measured using Glucometer (Ascensia Elite, Bayer Co. Mishawaka, Ind.) and test strips (Bayer Co. Mishawaka, Ind.). […]

[2] = native peptides; cited from earlier work
[3] = biological target: DPP-9 (Homo sapiens, UniProt Q86TI2); details: concentrations approximating those from therapeutic doses; cited from earlier work
Chain of DPP-9 (Q86TI2 whole entry): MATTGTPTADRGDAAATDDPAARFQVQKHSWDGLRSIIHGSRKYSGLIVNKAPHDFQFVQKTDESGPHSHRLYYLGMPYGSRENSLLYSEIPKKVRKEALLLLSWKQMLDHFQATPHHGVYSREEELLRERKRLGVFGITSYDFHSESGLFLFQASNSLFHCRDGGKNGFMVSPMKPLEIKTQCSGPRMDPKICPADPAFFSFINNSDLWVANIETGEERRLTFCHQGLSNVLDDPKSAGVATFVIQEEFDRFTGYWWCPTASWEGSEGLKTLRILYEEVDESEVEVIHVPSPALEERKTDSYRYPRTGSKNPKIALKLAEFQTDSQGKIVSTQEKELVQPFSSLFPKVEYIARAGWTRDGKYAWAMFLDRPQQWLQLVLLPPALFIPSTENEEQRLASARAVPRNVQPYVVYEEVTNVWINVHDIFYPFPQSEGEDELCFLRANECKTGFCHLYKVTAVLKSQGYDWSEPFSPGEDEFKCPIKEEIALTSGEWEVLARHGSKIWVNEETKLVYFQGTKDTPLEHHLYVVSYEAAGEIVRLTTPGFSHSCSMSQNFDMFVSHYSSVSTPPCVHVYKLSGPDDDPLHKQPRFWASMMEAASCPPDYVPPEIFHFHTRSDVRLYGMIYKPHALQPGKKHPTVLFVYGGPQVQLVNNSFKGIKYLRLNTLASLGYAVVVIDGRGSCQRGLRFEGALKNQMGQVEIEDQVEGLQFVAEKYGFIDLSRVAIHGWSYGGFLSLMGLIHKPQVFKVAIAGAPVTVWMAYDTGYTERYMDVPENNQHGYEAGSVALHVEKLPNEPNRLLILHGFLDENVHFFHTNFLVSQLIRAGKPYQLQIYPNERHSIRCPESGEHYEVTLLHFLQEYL

[4] = biological target: DPP-8 (Homo sapiens, UniProt Q6V1X1); details: concentrations approximating those from therapeutic doses; cited from earlier work
Chain of DPP-8 (Q6V1X1 whole entry): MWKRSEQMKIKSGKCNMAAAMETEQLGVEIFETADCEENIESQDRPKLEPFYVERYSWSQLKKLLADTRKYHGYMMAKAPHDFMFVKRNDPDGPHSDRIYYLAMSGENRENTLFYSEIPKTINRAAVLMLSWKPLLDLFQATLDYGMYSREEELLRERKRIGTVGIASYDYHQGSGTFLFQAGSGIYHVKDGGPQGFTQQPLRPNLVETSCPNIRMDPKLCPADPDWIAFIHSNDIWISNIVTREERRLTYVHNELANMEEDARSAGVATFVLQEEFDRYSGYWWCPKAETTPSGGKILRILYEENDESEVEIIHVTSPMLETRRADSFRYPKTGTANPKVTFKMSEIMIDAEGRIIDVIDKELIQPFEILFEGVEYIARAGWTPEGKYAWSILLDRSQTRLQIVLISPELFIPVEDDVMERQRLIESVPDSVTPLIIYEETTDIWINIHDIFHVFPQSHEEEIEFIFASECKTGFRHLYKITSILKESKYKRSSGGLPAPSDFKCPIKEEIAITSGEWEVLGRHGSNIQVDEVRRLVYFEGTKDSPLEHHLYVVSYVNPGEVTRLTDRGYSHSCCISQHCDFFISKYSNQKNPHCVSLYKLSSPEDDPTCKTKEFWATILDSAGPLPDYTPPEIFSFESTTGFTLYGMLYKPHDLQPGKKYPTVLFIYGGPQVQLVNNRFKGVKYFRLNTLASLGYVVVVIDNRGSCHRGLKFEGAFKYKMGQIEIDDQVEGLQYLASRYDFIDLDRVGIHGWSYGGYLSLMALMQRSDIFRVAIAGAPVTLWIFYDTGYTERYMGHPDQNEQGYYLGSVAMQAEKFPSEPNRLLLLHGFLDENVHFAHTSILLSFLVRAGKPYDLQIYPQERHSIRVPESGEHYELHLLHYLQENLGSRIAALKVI

[5] = in vivo; cited from earlier work

## CC[C@H](C)[C@H](NC(=O)[C@H](Cc1ccccc1)NC(=O)[C@H](CCC(=O)O)NC(=O)[C@H](CCCCN)NC(=O)[C@H](C)NC(=O)[C@H](C)NC(=O)[C@H](CCC(N)=O)NC(=O)CNC(=O)[C@H](CCC(=O)O)NC(=O)[C@H](CC(C)C)NC(=O)[C@H](Cc1ccc(O)cc1)NC(=O)[C@H](CO)NC(=O)[C@H](CO)NC(=O)[C@@H](NC(=O)[C@H](CC(=O)O)NC(=O)[C@H](CO)NC(=O)[C@@H](NC(=O)[C@H](Cc1ccccc1)NC(=O)[C@@H](NC(=O)CNC(=O)[C@H](CCC(=O)O)NC(=O)[C@H](C)NC(=O)[C@@H](N)Cc1c[nH]cn1)[C@@H](C)O)[C@@H](C)O)C(C)C)C(=O)N[C@@H](C)C(=O)N[C@@H](Cc1c[nH]c2ccccc12)C(=O)N[C@@H](CC(C)C)C(=O)N[C@H](C(=O)N[C@@H](CCCCN)C(=O)NCC(=O)N[C@@H](CCCNC(=N)N)C(N)=O)C(C)C [GLP-1, GLP-1 (7-36 amide)]
[1]; pancreas histology after 4 weeks, versus PBS or empty carrier
  BrdU positive nuclei (cell divisions) in the islets: significantly more cell divisions
[1]; s.c. every 2 days for 4 weeks, 20 ug GLP-1
  body weight at the end of the 4 week treatment: greater variability in response

## native gastrin: native peptide hormone with short biological half-life
[2]
  biological half-life: few minutes

## N[C@@H](CC(=O)N1CCn2c(nnc2C(F)(F)F)C1)Cc1cc(F)c(F)cc1F [Sitagliptin, 7-[(3R)-3-amino-1-oxo-4-(2,4,5-trifluorophenyl)butyl]-5,6,7,8-tetrahydro-3-(trifluoromethyl)-1,2,4-triazolo[4,3-a]pyrazine phosphate (1:1) monohydrate]
[3]
  inhibition of DPP-9 activity in vitro: does not inhibit
[4]
  inhibition of DPP-8 activity in vitro: does not inhibit

## COc1ccc2[nH]c([S+]([O-])Cc3ncc(C)c(OC)c3C)nc2c1 (stereo not drawn) [Omeprazole]
[5]
  LD50: > 4000 mg/kg

— patent US10507248B2, “Hydrophobic core carrier compositions for delivery of therapeutic agents, methods of making and using the same” (PharmaIn Corporation, priority 2005, dated 2019)
